Results on two compounds are retold here after publication PMC4770715, “LIM kinase inhibitors disrupt mitotic microtubule organization and impair tumor cell proliferation” (Oncotarget, 2015).

Among the targets are IRAK1 (Homo sapiens, UniProt P51617); MAP4K4 (Homo sapiens, UniProt O95819); CSNK2A1 (Homo sapiens, UniProt P68400); CIT (Homo sapiens, UniProt O14578); TXK (Homo sapiens, UniProt P42681); AURKA (Homo sapiens, UniProt O14965); EGFR(G719S) (Homo sapiens, UniProt P00533, G719S); STK35 (Homo sapiens, UniProt Q8TDR2); CDKL3 (Homo sapiens, UniProt Q8IVW4); MUSK (Homo sapiens, UniProt O15146); CAMK2B (Homo sapiens, UniProt Q13554); PIK3CD (Homo sapiens, UniProt O00329); CAMKK2 (Homo sapiens, UniProt Q96RR4); DYRK1B (Homo sapiens, UniProt Q9Y463); GRK7 (Homo sapiens, UniProt Q8WTQ7); FLT3(D835Y) (Homo sapiens, UniProt P36888, D835Y); ANKK1 (Homo sapiens, UniProt Q8NFD2); PLK1 (Homo sapiens, UniProt P53350); INSRR (Homo sapiens, UniProt P14616).

What all share (assay): biochemical
Holding throughout (set-up): KINOMEscan active-site competition binding, percent of control (100 = no competition)
Details in all cases: competition binding, percent control

In another assay the target is T1, DCAMKL3 (Homo sapiens, UniProt Q9C098).
T1 construct: gene DCLK3
T1 sequence (Q9C098 whole entry): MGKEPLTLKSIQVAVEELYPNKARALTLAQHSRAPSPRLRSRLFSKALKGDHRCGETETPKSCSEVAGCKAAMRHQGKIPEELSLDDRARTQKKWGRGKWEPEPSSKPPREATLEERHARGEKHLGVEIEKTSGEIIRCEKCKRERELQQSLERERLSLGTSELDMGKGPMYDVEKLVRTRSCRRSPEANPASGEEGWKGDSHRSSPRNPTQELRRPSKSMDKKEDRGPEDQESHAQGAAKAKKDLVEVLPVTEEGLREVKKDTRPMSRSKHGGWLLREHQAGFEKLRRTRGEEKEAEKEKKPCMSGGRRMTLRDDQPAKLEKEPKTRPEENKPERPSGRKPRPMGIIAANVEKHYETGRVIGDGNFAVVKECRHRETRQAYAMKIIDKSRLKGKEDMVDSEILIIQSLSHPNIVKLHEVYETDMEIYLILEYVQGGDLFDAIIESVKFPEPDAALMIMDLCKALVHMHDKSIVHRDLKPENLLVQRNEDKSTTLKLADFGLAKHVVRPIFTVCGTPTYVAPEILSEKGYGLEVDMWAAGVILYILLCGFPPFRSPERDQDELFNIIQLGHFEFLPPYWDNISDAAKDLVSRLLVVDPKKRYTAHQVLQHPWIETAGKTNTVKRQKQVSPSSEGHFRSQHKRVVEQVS

Assay [1] has as its target T2, RPS6KA4(Kin.Dom.2-C-terminal) (Homo sapiens, UniProt O75676).
T2 construct: Kin.Dom.2-C-terminal

The next assay addresses T3, ICK (Homo sapiens, UniProt Q9UPZ9).
T3 construct: gene CILK1

The target in a further assay is T4, p38-delta (Homo sapiens, UniProt O15264).
T4 construct: gene MAPK13
T4 sequence (O15264 whole entry): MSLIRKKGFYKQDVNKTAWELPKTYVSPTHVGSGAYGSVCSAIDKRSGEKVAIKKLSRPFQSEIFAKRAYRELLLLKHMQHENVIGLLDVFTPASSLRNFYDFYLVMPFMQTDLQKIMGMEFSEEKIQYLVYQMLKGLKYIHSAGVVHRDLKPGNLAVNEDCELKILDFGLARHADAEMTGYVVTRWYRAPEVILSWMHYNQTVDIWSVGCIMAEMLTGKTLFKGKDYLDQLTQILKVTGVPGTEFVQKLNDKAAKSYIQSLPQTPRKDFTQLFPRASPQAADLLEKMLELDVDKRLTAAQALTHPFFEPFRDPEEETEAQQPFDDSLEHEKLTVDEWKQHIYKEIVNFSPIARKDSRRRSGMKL

SMILES strings stand for the structures.

Chain of EGFR(G719S) (P00533 whole entry G719S): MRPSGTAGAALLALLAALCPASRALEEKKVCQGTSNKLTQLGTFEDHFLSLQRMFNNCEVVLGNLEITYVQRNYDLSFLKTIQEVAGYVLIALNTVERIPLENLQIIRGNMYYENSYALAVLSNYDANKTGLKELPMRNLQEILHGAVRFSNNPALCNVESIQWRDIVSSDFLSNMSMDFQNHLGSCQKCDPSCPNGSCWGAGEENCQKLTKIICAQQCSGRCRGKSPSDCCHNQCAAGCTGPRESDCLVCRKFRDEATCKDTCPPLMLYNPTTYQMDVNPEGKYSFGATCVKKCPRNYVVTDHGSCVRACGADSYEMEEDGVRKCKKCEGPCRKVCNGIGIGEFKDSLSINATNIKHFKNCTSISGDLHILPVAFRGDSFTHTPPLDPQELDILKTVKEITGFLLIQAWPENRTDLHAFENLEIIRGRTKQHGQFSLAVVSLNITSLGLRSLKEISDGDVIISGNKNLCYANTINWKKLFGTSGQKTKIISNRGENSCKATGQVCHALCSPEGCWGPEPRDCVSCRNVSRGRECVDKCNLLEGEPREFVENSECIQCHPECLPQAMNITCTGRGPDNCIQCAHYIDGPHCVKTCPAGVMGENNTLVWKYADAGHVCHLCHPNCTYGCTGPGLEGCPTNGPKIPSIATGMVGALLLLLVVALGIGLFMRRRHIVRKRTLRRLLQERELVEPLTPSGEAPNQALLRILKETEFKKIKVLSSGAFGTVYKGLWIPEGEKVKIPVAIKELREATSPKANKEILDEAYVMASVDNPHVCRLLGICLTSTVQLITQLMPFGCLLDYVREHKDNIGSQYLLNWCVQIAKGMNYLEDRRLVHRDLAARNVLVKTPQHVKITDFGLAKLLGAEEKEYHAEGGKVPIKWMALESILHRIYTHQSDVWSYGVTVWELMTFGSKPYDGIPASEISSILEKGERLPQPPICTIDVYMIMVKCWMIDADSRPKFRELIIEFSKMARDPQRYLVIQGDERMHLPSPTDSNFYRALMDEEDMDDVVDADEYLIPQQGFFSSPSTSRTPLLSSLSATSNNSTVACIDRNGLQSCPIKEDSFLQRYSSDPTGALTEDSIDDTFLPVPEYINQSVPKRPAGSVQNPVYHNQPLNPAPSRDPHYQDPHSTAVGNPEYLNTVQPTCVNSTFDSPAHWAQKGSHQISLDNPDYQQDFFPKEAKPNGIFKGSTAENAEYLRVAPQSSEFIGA
T2 sequence (O75676 whole entry): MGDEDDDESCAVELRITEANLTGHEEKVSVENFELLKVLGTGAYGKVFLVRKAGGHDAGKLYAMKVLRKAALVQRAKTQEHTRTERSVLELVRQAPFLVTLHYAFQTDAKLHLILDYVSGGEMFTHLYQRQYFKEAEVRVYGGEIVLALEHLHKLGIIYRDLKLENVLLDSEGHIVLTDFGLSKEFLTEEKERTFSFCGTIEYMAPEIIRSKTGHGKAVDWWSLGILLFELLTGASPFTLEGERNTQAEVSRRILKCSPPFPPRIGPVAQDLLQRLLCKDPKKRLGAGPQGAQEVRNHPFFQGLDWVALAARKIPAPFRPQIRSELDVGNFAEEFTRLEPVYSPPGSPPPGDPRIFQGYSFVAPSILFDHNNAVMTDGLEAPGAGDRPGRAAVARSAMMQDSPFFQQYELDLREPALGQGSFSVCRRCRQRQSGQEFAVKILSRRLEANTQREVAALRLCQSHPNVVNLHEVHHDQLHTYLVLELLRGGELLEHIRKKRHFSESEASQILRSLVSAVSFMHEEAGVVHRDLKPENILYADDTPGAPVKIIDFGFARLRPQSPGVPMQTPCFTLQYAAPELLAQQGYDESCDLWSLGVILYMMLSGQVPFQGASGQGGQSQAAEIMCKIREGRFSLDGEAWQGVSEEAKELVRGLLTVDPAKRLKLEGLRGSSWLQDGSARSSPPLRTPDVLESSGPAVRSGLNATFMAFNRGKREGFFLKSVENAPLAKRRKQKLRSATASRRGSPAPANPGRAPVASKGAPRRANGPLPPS
Chain of PIK3CD (O00329 whole entry): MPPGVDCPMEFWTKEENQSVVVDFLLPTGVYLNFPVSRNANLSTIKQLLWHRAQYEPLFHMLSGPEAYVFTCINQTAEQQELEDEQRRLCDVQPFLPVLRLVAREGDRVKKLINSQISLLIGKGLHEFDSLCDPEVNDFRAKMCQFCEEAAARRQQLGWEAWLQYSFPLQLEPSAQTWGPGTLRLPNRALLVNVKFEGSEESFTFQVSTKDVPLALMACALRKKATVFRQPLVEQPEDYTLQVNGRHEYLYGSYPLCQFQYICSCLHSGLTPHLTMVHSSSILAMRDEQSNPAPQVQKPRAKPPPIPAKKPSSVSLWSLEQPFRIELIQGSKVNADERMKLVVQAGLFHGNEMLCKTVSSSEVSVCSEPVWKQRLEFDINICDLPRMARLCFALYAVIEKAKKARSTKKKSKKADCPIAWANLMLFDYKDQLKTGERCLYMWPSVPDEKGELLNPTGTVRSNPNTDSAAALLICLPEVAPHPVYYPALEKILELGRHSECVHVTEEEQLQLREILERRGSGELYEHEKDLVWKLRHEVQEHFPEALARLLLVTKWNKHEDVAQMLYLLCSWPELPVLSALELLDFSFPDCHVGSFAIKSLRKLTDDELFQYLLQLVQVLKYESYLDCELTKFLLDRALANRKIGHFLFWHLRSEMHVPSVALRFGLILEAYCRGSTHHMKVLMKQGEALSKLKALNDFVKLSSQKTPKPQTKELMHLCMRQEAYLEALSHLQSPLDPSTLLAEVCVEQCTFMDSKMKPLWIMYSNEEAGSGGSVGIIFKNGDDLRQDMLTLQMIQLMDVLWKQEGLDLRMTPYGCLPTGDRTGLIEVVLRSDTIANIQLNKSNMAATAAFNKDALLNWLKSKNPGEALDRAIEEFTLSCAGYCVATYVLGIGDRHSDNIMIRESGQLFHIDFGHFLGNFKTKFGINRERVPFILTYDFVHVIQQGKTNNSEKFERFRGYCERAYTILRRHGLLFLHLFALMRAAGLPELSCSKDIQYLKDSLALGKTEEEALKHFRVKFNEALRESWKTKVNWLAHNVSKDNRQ
Chain of TXK (P42681 whole entry): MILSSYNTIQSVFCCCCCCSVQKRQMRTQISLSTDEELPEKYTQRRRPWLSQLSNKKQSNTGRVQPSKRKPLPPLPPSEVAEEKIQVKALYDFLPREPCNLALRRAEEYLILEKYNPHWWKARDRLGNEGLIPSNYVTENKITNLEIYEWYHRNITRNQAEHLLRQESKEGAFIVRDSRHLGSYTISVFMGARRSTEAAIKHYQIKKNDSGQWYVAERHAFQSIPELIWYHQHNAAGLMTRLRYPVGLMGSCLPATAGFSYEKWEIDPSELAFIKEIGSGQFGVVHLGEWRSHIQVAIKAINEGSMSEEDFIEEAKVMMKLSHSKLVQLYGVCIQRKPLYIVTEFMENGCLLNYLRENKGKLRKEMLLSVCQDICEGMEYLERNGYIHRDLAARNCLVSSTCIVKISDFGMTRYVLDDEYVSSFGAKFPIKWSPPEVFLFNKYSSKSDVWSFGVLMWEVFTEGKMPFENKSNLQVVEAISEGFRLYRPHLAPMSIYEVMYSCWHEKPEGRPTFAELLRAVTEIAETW
Chain of AURKA (O14965 whole entry): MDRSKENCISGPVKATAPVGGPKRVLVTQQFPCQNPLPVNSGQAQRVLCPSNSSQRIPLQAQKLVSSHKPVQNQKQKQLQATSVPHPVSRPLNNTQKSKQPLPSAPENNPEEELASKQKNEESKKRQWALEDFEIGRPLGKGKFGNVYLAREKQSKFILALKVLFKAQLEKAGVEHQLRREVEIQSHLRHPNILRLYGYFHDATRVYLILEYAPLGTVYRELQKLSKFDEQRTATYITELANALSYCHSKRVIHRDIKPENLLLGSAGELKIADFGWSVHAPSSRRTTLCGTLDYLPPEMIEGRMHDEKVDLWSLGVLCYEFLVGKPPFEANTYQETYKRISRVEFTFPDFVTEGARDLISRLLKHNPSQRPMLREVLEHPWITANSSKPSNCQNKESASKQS

For the compound `COc1ccc(-c2cnccc2-c2cnc(NC(=O)C(C)C)s2)c(C(F)(F)F)c1` [CRT0105446, N-{5-[3-(4-Methoxy-2-trifluoromethyl-phenyl)-pyridin-4-yl]-hiazol-2-yl}-isobutyramide], the remaining binding at 10 µM on IRAK1 turned out to be 94%; on MAP4K4, 68%; on CSNK2A1 it was 95%; on CIT, 37%; on TXK, 100%; on AURKA, 100%. For the same compound, the remaining binding at 10 µM at EGFR(G719S) was 94%; at STK35, 98%; at DCAMKL3, 88%; in [1], 57%; at CDKL3, 26%; on MUSK, 96%. Also, the remaining binding at 10 µM at CAMK2B is 92%; at ICK it was 18%; on PIK3CD it was 100%; on p38-delta, 97%; on CAMKK2, 95%; on DYRK1B, 40%. Moreover, the remaining binding at 10 µM on GRK7 stood at 58%; on FLT3(D835Y), 20%; at ANKK1, 99%; on PLK1, 100%; on INSRR it was 96%.

Consider `Cc1ccc(-c2cnccc2-c2cnc(Nc3ccc(O)cc3)s2)c(Cl)c1` [CRT0105950, 4-{5-[3-(2-Chloro-4-methyl-phenyl)-pyridin-4-yl]-thiazol-2-ylamino}-phenol], for which the remaining binding at 10 µM is 56% on IRAK1; 11% at MAP4K4; 60% on CSNK2A1; 44% on CIT; 38% on TXK; 18% at AURKA. Also, the remaining binding at 10 µM at EGFR(G719S) amounted to 75%; at STK35, 100%; at DCAMKL3 it was 7.4%; in assay [1], 72%; on CDKL3 it was 23%; at MUSK it was 18%. The remaining binding at 10 µM at CAMK2B came out at 42%; at ICK, 19%; on PIK3CD it was 100%; on p38-delta, 100%; on CAMKK2, 43%; on DYRK1B, 5.6%. Further, the remaining binding at 10 µM was determined as 16% at GRK7; 1.2% on FLT3(D835Y); 69% at ANKK1; 100% on PLK1; 0.15% on INSRR.
